Measured values as given in publication PMC6160999, “Pharmacokinetics, Tissue Distribution and Excretion of a Novel Diuretic (PU-48) in Rats” (Pharmaceutics, 2018).
Where “and” joins values, the source holds several entries; their conditions need not be identical. Equal entries are not always repeated. Where two headings read alike, the source gives them in different places.

Columns and labels:
[1] = Bile excretion in bile duct-cannulated rats; format: in vivo; settings: bile duct-cannulated rat, oral PU-48 SNEDDS 12 mg/kg
Procedure: Internal standard (IS, 25 μL) was added to 50 μL plasma, urine, or bile sample in a clean tube, placed into a water bath at 37 °C, and dried under a gentle stream of nitrogen gas, followed by the addition of 0.5 mL of ethyl acetate for liquid-liquid extraction. The mixture was shaken by a vortex mixer for 3 min, and then centrifuged at 8000 rpm (4200× g) for 10 min at 4 °C. After centrifugation, the upper organic phase was transferred into a clean centrifuge tube and then dried it again. The combined upper organic phases were evaporated to dryness at 37 °C under a gentle stream of nitrogen gas. The residue was reconstituted with 50 μL acetonitrile and then centrifuged at 13,000 rpm (12,000× g) for 10 min at 4 °C, the upper liquid was transferred into sample vials. Finally, 5 μL aliquots were injected into the LC–MS/MS system to analyze. Each tissue samples were homogenized in normal saline (0.9% NaCl, 1:3, w/v), and then centrifuged at 10,000× g for 10 min to get the supernatant. Other steps were the same as plasma sample preparation.
Six male rats were given single orally administration of PU-48 (12 mg/kg, 1.2 mg/mL in the SNEDDS formulation) and housed in separate stainless-steel metabolism cages. Both feces and urine samples were collected at 0–1, 1–2, 2–4, 4–6, 6–8, 8–12, 12–24, 24–48, 48–72 and 72–96 h. In a separate study, bile samples were collected 0–1, 1–2, 2–4, 4–6, 6–8, 8–12, 12–24, 24–48, 48–72 and 72–96 h after oral administration of PU-48 (12 mg/kg, 1.2 mg/mL in the SNEDDS formulation) to six bile duct-cannulated rats.

plasma protein = experiment: Plasma protein binding by equilibrium dialysis, rat plasma; format: in vitro ADME; settings: for Concentration in Buffer (post-dialysis) / Concentration in Plasma (post-dialysis) / Protein-Binding Ratio: rat plasma, n=5; for Concentration in Buffer (post-dialysis) / Concentration in Plasma (post-dialysis): 37 °C 24 h
Procedure: The concentration of PU-48 prototype in biological sample (feces and plasma protein binding analysis) was determined using a validated high-performance liquid chromatographic (HPLC) method our preliminary experiment (See Supplementary Materials HPLC Analysis and Method Validation). Briefly, the quantitative analysis of PU-48 was performed using a HPLC consistent of model 510 pump with a model 2487 ultraviolet detector, a model Rheodyne 7725 injector, and a column oven. The analytical conditions were as follows—The detection wavelength—293 nm; analytical column—a reversed-phase Acclaim C18 (4.6 mm × 250 mm, 5.0 µm, Dionex, Sunnyvale, CA, USA); column temperature—25 °C; mobile phase—acetonitrile—distilled water at a ratio of 60:40 (v/v); flow rate—1 mL/min. In this study, the methods for the feces samples were evaluated for specificity, linearity, precision, accuracy, and recovery (See Supplementary Materials Tables S4–S6).
The binding ratio of PU-48 to plasma protein was determined by equilibrium dialysis. A volume of 1 mL of plasma with PU-48 (0.25, 1 and 4 µg/mL) was added to a semi-permeable membrane bag (plasma chamber), the bag was place into the other clean tube with 9 mL PBS (buffer chamber). The equilibrium dialysis was performed at 37 °C for 24 h. At the end of dialysis, 500 μL each of post-dialysis samples from the plasma and the buffer chambers were collected and analyzed by HPLC method. The plasma protein binding of PU-48 was calculated from the concentration of PU-48 in PBS (free concentration) and in plasma (free + bound) according to equation: Bound (%) = (Concplasma chamber − Concbuffer chamber)/Concplasma chamber × 100%.

[2] = cited from earlier work
[3] = system: IMCD urea transporter UT-As; parameters: method as in PMID 25298345, PMID 12133842, PMID 12965892, PMID 23597791, PMID 24210002; settings: rodents, compared to the other thienoquinolin lead compounds; cited from earlier work

Accumulative Excretion Amount, bile ([1]; 0–1 h): 78.5 ± 60.3 ng
Accumulative Excretion Percentage, bile ([1]; 0–1 h): 0.0027 ± 0.0021%
Excretion Amount, bile ([1]; 0–1 h): 78.5 ± 60.3 ng
PU-48 Concentration in bile ([1]; 0–1 h): 143.8 ± 72.5 ng/mL
Accumulative Excretion Amount, bile ([1]; 1–2 h): 153.6 ± 115.5 ng
Accumulative Excretion Percentage, bile ([1]; 1–2 h): 0.0054 ± 0.0041%
Excretion Amount, bile ([1]; 1–2 h): 75.2 ± 70.3 ng
PU-48 Concentration in bile ([1]; 1–2 h): 123.1 ± 44.3 ng/mL
Accumulative Excretion Amount, bile ([1]; 2–4 h): 218.9 ± 128.9 ng
Accumulative Excretion Percentage, bile ([1]; 2–4 h): 0.0076 ± 0.0046%
Excretion Amount, bile ([1]; 2–4 h): 65.3 ± 39.8 ng
PU-48 Concentration in bile ([1]; 2–4 h): 84.7 ± 20.1 ng/mL
Accumulative Excretion Percentage, bile ([1]; 4–6 h): 0.0085 ± 0.0044%
Excretion Amount, bile ([1]; 4–6 h): 24.5 ± 14.3 ng
PU-48 Concentration in bile ([1]; 4–6 h): 47.6 ± 19.4 ng/mL
Accumulative Excretion Percentage, bile ([1]; 6–8 h): 0.0091 ± 0.0042%
Excretion Amount, bile ([1]; 6–8 h): 18.7 ± 13.4 ng
PU-48 Concentration in bile ([1]; 6–8 h): 41.1 ± 21.9 ng/mL
Accumulative Excretion Amount, bile ([1]; 8–12 h): 301.8 ± 105.8 ng
Accumulative Excretion Percentage, bile ([1]; 8–12 h): 0.0105 ± 0.0037%
Excretion Amount, bile ([1]; 8–12 h): 39.7 ± 45.9 ng
PU-48 Concentration in bile ([1]; 8–12 h): 33.3 ± 17.4 ng/mL
Accumulative Excretion Amount, bile ([1]; 12–24 h): 339.9 ± 122.8 ng
Accumulative Excretion Percentage, bile ([1]; 12–24 h): 0.0118 ± 0.0042%
Excretion Amount, bile ([1]; 12–24 h): 38.1 ± 37.4 ng
PU-48 Concentration in bile ([1]; 12–24 h): 33.4 ± 15.5 ng/mL
Accumulative Excretion Amount, bile ([1]; 24–48 h): 350.7 ± 124.1 ng
Accumulative Excretion Percentage, bile ([1]; 24–48 h): 0.0122 ± 0.0043%
Excretion Amount, bile ([1]; 24–48 h): 10.8 ± 3.2 ng
PU-48 Concentration in bile ([1]; 24–48 h): 9.4 ± 5.4 ng/mL
Accumulative Excretion Amount, bile ([1]; 48–72 h): 355.5 ± 120.8 ng
Accumulative Excretion Percentage, bile ([1]; 48–72 h): 0.0123 ± 0.0042%
Excretion Amount, bile ([1]; 48–72 h): 4.8 ± 4.7 ng
PU-48 Concentration in bile ([1]; 48–72 h): 5.1 ± 3.7 ng/mL
Accumulative Excretion Amount, bile ([1]; 72–96 h (within 96 h)): 357.5 ± 120.1 ng
Excretion Amount, bile ([1]; 72–96 h): 2.0 ± 1.8 ng
PU-48 Concentration in bile ([1]; 72–96 h): 1.4 ± 0.9 ng/mL
Concentration in Buffer (post-dialysis) (plasma protein; added 0.25 µg/mL): 12 ± 3 ng/mL
Concentration in Plasma (post-dialysis) (plasma protein; added 0.25 µg/mL): 127 ± 7 ng/mL
Protein-Binding Ratio (plasma protein; added 0.25 µg/mL): 90.70 ± 2.18%
Concentration in Buffer (post-dialysis) (plasma protein; added 1 µg/mL): 47 ± 2 ng/mL
Concentration in Plasma (post-dialysis) (plasma protein; added 1 µg/mL): 524 ± 32 ng/mL
Protein-Binding Ratio (plasma protein; added 1 µg/mL): 91.06 ± 0.78%
Concentration in Buffer (post-dialysis) (plasma protein; added 4 µg/mL): 194 ± 19 ng/mL
Concentration in Plasma (post-dialysis) (plasma protein; added 4 µg/mL): 2128 ± 166 ng/mL
Protein-Binding Ratio (plasma protein; added 4 µg/mL): 90.83 ± 1.17%
fraction unbound at 24 h (plasma protein; rat, plasma, rats, overall statement): < 0.1
SMILES: COC(=O)c1sc2nc3ccc(OC)cc3cc2c1N [PU-48, Methyl 3-amino-6-methoxythieno [2,3-b] quinoline-2-carboxylate]
Accumulative Excretion Percentage, bile ([1]; 72–96 h (within 96 h)): 0.0124 ± 0.0041% and 0.0124 ± 0.004% and 0.0124%
Diuretic activity ([2]; rodents, compared to the other thienoquinolin lead compounds): more potent diuretic activity
Diuretic activity ([2]; wild-type and UT-gene knockout mice): potent diuretic activity
Selective inhibition towards IMCD urea transporter UT-As [3]: higher selective inhibition
